Results on 47 molecules are retold here after the Biogen ADME set (Fang et al. 2023).

SMILES strings stand for the structures. Values after ≈ are worked out from the molar mass of the structure shown.

For this data set the following is noted: for aqueous solubility: pH 6.8.

Turning to `NC(=O)C1(CCCc2ccccn2)CCNCC1`, the intrinsic clearance, human liver microsomes is ≤ 4.74 mL/min/kg; the intrinsic clearance, rat liver microsomes was found to be 84.3 mL/min/kg; the aqueous solubility stood at 38.7 µg/mL (≈ 156 µM).

Consider `CN1CCC[C@H]1C(=O)N[C@@H](CO)Cc1ccccc1`, for which the MDR1-MDCK efflux ratio was 2.77; the intrinsic clearance, human liver microsomes stood at 7.16 mL/min/kg; the intrinsic clearance, rat liver microsomes was determined as 315 mL/min/kg.

Molecule `CCONC(=O)c1cnn(-c2cccc(Cl)c2)c1` came in with an intrinsic clearance, human liver microsomes of 34.9 mL/min/kg; an intrinsic clearance, rat liver microsomes of 446 mL/min/kg; an aqueous solubility of 41 µg/mL (≈ 154 µM).

`CCOC(=O)N1CCN(C(=O)c2ccc3c(c2)OCO3)CC1`: the MDR1-MDCK efflux ratio came to 0.82; the intrinsic clearance, human liver microsomes is ≤ 4.74 mL/min/kg; the intrinsic clearance, rat liver microsomes was 112 mL/min/kg; the aqueous solubility was 53 µg/mL (≈ 173 µM).

On to `Cc1cccc(Oc2ncccc2N)c1C`, for which the MDR1-MDCK efflux ratio came out at 0.588; the intrinsic clearance, human liver microsomes came to 11.7 mL/min/kg; the intrinsic clearance, rat liver microsomes turned out to be 308 mL/min/kg; the aqueous solubility turned out to be 45.3 µg/mL (≈ 212 µM).

For `CCOC1CCN(C(=O)Cn2c(=O)[nH]c3ccccc32)CC1`, the MDR1-MDCK efflux ratio was determined as 16.9; the intrinsic clearance, human liver microsomes was ≤ 4.74 mL/min/kg; the intrinsic clearance, rat liver microsomes was 20.2 mL/min/kg; the aqueous solubility came to 47.3 µg/mL (≈ 156 µM).

Molecule `CCn1nnc2cc(C(=O)Nc3cccc(C#N)c3)ccc21` returned an aqueous solubility of 1 µg/mL (≈ 3.43 µM).

Take `Cc1nc2ccccc2n1Cc1ccc(C(=O)O)cc1`: the MDR1-MDCK efflux ratio was 2.75; the intrinsic clearance, human liver microsomes was ≤ 4.74 mL/min/kg; the intrinsic clearance, rat liver microsomes is ≤ 10.7 mL/min/kg; the aqueous solubility came out at 35.4 µg/mL (≈ 133 µM).

For `O=C(CSC1CCCC1)N1CCC(n2ccnn2)CC1`, the MDR1-MDCK efflux ratio was determined as 1.3; the intrinsic clearance, human liver microsomes turned out to be 13.2 mL/min/kg; the intrinsic clearance, rat liver microsomes came out at 138 mL/min/kg; the aqueous solubility amounted to 39.1 µg/mL (≈ 133 µM).

With `Clc1cccc(Nc2ncnc3[nH]ncc23)c1Cl`, the aqueous solubility was determined as 3.23 µg/mL (≈ 11.5 µM).

For the molecule `Cc1nc(CC(=O)NCc2ccccc2)cs1`, the MDR1-MDCK efflux ratio came out at 0.79; the intrinsic clearance, human liver microsomes was ≤ 4.74 mL/min/kg; the intrinsic clearance, rat liver microsomes is 39 mL/min/kg; the aqueous solubility was 26 µg/mL (≈ 106 µM).

With `O=C(NC1CCCC1)N1CCN(c2nccn3nc4c(c23)CCCC4)CC1`, the MDR1-MDCK efflux ratio worked out at 2; the intrinsic clearance, human liver microsomes stood at 118 mL/min/kg; the intrinsic clearance, rat liver microsomes was 464 mL/min/kg; the aqueous solubility came to 17.1 µg/mL (≈ 46.4 µM).

For the molecule `CN(Cc1ccc(C(=O)O)cc1)C(=O)c1ccnn1C`, the MDR1-MDCK efflux ratio came to 0.663; the intrinsic clearance, human liver microsomes was ≤ 4.74 mL/min/kg; the intrinsic clearance, rat liver microsomes was ≤ 10.7 mL/min/kg.

`O=C(O)CCn1c2ccccc2c2ccccc21`: the MDR1-MDCK efflux ratio was 0.809; the intrinsic clearance, human liver microsomes is ≤ 4.74 mL/min/kg; the intrinsic clearance, rat liver microsomes was determined as 11.4 mL/min/kg; the aqueous solubility stood at 52 µg/mL (≈ 217 µM).

On to `Cc1nnc2ccc(NCCOC3CCCCCC3)nn12`, for which the MDR1-MDCK efflux ratio worked out at 1.54; the intrinsic clearance, human liver microsomes was 49.9 mL/min/kg; the intrinsic clearance, rat liver microsomes came to 901 mL/min/kg.

For the molecule `O=C(Nc1nc2ccccc2[nH]1)c1ccncc1`, the MDR1-MDCK efflux ratio was found to be 1.24; the intrinsic clearance, human liver microsomes is ≤ 4.74 mL/min/kg; the intrinsic clearance, rat liver microsomes amounted to 109 mL/min/kg; the aqueous solubility was found to be 5.09 µg/mL (≈ 21.4 µM).

With `CN(C)CCN(Cc1ccccc1)Cc1ccccc1O`, the MDR1-MDCK efflux ratio is 0.84; the intrinsic clearance, human liver microsomes came to 330 mL/min/kg; the intrinsic clearance, rat liver microsomes was 1380 mL/min/kg; the aqueous solubility stood at 41.9 µg/mL (≈ 147 µM).

For `c1ccc2c(c1)CCN(Cc1nnc3n1CCC3)C2`, the MDR1-MDCK efflux ratio came to 6.91; the intrinsic clearance, human liver microsomes was ≤ 4.74 mL/min/kg; the intrinsic clearance, rat liver microsomes turned out to be 34.5 mL/min/kg; the aqueous solubility was 35.3 µg/mL (≈ 139 µM).

Turning to `CCCCCCCCc1ccc(CC[C@](N)(CO)COP(=O)(O)O)cc1`, the intrinsic clearance, human liver microsomes came to 7.61 mL/min/kg.

As for `c1ccc(C2(c3ccccc3)CCCN(Cc3nnc(C4CC4)o3)C2)cc1`, the MDR1-MDCK efflux ratio worked out at 0.685; the intrinsic clearance, human liver microsomes is 246 mL/min/kg; the intrinsic clearance, rat liver microsomes stood at 1200 mL/min/kg; the aqueous solubility was 35.6 µg/mL (≈ 98.9 µM).

Regarding `Cc1cccc2sc(NC(=O)c3cccnc3)nc12`, the MDR1-MDCK efflux ratio was 0.329 and the aqueous solubility was 0.52 µg/mL (≈ 1.93 µM).

Take `COc1ccccc1-c1nn(-c2ccccc2)cc1CO`: the MDR1-MDCK efflux ratio was found to be 0.418; the intrinsic clearance, human liver microsomes was 42.1 mL/min/kg; the intrinsic clearance, rat liver microsomes is 374 mL/min/kg; the aqueous solubility stood at 19.7 µg/mL (≈ 70.4 µM).

The molecule `CN1CCN(c2ccc3nc(-c4cc(C(C)(C)C)c(OCCCC(=O)NCCCN=[N+]=[N-])c(C(C)(C)C)c4)[nH]c3c2)CC1` registered an intrinsic clearance, human liver microsomes of 177 mL/min/kg and an intrinsic clearance, rat liver microsomes of 212 mL/min/kg.

On to `Cc1nc(Nc2nccs2)cc(C2CN(c3ncccn3)C2)n1`, for which the MDR1-MDCK efflux ratio amounted to 1.45; the fraction unbound, human plasma came to 0.0278; the fraction unbound, rat plasma is 0.0237; the intrinsic clearance, human liver microsomes was 30.3 mL/min/kg. In addition, the intrinsic clearance, rat liver microsomes was found to be 74.2 mL/min/kg.

With `Cc1cc(OCCCS(C)(=O)=O)cc(C)c1-c1cccc(COc2ccc3c(c2)OC[C@@H]3CC(=O)O)c1`, the MDR1-MDCK efflux ratio came out at 6.84; the intrinsic clearance, human liver microsomes came out at 5.67 mL/min/kg; the intrinsic clearance, rat liver microsomes turned out to be 28.3 mL/min/kg.

In the case of `O=C(NC1CCCCCC1)c1ccc(CSc2nc3ccccc3[nH]2)cc1`, the MDR1-MDCK efflux ratio came to 2.99; the intrinsic clearance, human liver microsomes was 161 mL/min/kg; the intrinsic clearance, rat liver microsomes amounted to 1900 mL/min/kg; the aqueous solubility was 2.71 µg/mL (≈ 7.14 µM).

Turning to `Fc1ccc2[nH]c(CO[C@H]3CN(Cc4ccccc4)C[C@H]3F)nc2c1`, the MDR1-MDCK efflux ratio was 0.885; the intrinsic clearance, human liver microsomes was 88.9 mL/min/kg; the intrinsic clearance, rat liver microsomes is 971 mL/min/kg; the aqueous solubility was 35.4 µg/mL (≈ 103 µM).

Regarding `COc1cccc(Oc2ccc(NC(=O)CN3CCOCC3)cn2)c1`, the MDR1-MDCK efflux ratio amounted to 1.26; the intrinsic clearance, human liver microsomes was ≤ 4.74 mL/min/kg; the intrinsic clearance, rat liver microsomes worked out at 138 mL/min/kg.

In turn, `Cc1cc(C(=O)NC2CCN(c3ncnc4sc(C)c(C)c34)CC2)on1` came in with an intrinsic clearance, human liver microsomes of 43.3 mL/min/kg; an intrinsic clearance, rat liver microsomes of 368 mL/min/kg; an aqueous solubility of 2.49 µg/mL (≈ 6.7 µM).

As to `Cc1ccc(=O)n(CC2(O)CCN(Cc3ccc4ccccc4n3)CC2)n1`, the intrinsic clearance, human liver microsomes is ≤ 4.74 mL/min/kg and the intrinsic clearance, rat liver microsomes was 90.1 mL/min/kg.

As for `COCC1(CNC(=O)c2ccc(-n3cccn3)cc2)CCC1`, the MDR1-MDCK efflux ratio was 0.596; the intrinsic clearance, human liver microsomes came out at 18.2 mL/min/kg; the intrinsic clearance, rat liver microsomes was 492 mL/min/kg.

For `CC(COc1ccccc1Cc1ccccc1)N1CCCCC1` (stereo unspecified), the MDR1-MDCK efflux ratio was determined as 1.3; the intrinsic clearance, human liver microsomes is 12.5 mL/min/kg; the intrinsic clearance, rat liver microsomes was found to be 2880 mL/min/kg.

In the case of `Cc1ccccc1C(=O)N1CCC(O)(Cn2ccnc2C)CC1`, the MDR1-MDCK efflux ratio worked out at 4.93; the intrinsic clearance, human liver microsomes came to 4.92 mL/min/kg; the intrinsic clearance, rat liver microsomes was determined as 100 mL/min/kg.

As for `Cc1noc(NCc2c(C)nn(C)c2C)n1`, the MDR1-MDCK efflux ratio was 1.34; the intrinsic clearance, human liver microsomes is ≤ 4.74 mL/min/kg; the intrinsic clearance, rat liver microsomes is ≤ 10.7 mL/min/kg.

`Cc1cnc(Nc2ccc(OCCN3CCCC3)cc2)nc1Nc1cccc(S(=O)(=O)NC(C)(C)C)c1` displayed an intrinsic clearance, human liver microsomes of 34.1 mL/min/kg and an intrinsic clearance, rat liver microsomes of 209 mL/min/kg.

`OCCn1cc(-c2ccc3c(c2)CC/C3=N\O)c(-c2ccncc2)n1`: the MDR1-MDCK efflux ratio came to 36.4; the intrinsic clearance, human liver microsomes was 9.21 mL/min/kg; the intrinsic clearance, rat liver microsomes is 123 mL/min/kg; the aqueous solubility stood at 13.7 µg/mL (≈ 41 µM).

Take `c1ccc(Nc2nc(N3CCNCC3)nc(N3CCOCC3)n2)cc1`: the MDR1-MDCK efflux ratio is 43.2; the intrinsic clearance, human liver microsomes was ≤ 4.74 mL/min/kg; the intrinsic clearance, rat liver microsomes turned out to be 57 mL/min/kg.

As for `COc1ccc(-c2csc3ncnc(Oc4ccc(C)nc4)c23)cc1`, the MDR1-MDCK efflux ratio was found to be 0.595; the intrinsic clearance, human liver microsomes was found to be 78.5 mL/min/kg; the intrinsic clearance, rat liver microsomes worked out at 320 mL/min/kg; the aqueous solubility amounted to 7.81 µg/mL (≈ 22.4 µM).

As to `CCc1c2c(nc3ccc(O)cc13)-c1cc3c(c(=O)n1C2)COC(=O)[C@]3(O)CC`, the MDR1-MDCK efflux ratio turned out to be 50.8; the intrinsic clearance, human liver microsomes worked out at 18.3 mL/min/kg; the intrinsic clearance, rat liver microsomes was ≤ 10.7 mL/min/kg.

With `O=c1oc2cccnc2n1Cc1ncc(-c2ccc(F)cc2)o1`, the MDR1-MDCK efflux ratio was 2.86; the intrinsic clearance, human liver microsomes is ≤ 4.74 mL/min/kg; the intrinsic clearance, rat liver microsomes was ≤ 10.7 mL/min/kg.

In turn, `COc1ccc(-c2csc(CC(N)=O)n2)cc1Br` yielded an aqueous solubility of 37.5 µg/mL (≈ 115 µM).

Consider `Cc1sc(-c2ccccn2)nc1-c1ccc(NC(=O)C(C)C)cc1`, for which the MDR1-MDCK efflux ratio amounted to 0.624; the intrinsic clearance, human liver microsomes turned out to be 15.4 mL/min/kg; the intrinsic clearance, rat liver microsomes was 48.8 mL/min/kg; the aqueous solubility amounted to 1.41 µg/mL (≈ 4.18 µM).

As to `Cc1cc(C#N)cc(N2CCc3c(ncn3CCc3ccccc3)C2)n1`, the MDR1-MDCK efflux ratio was 1.22; the intrinsic clearance, human liver microsomes was 975 mL/min/kg; the intrinsic clearance, rat liver microsomes was 3430 mL/min/kg.

In the case of `Cc1oc(C)c(C(=O)Nc2ccn(C)n2)c1C`, the MDR1-MDCK efflux ratio was determined as 0.597; the intrinsic clearance, human liver microsomes amounted to 75.4 mL/min/kg; the intrinsic clearance, rat liver microsomes worked out at 93.7 mL/min/kg; the aqueous solubility was 36.7 µg/mL (≈ 157 µM).

With `O[C@H]1CC[C@H](Nc2ncc3nc(Nc4c(F)cc(F)cc4F)n([C@H]4CCOC4)c3n2)CC1`, the MDR1-MDCK efflux ratio was determined as 93.4; the intrinsic clearance, human liver microsomes was ≤ 4.74 mL/min/kg; the intrinsic clearance, rat liver microsomes worked out at 10.9 mL/min/kg.

For `CCCCn1nc(-c2ccc(C)o2)nc1CNC`, the MDR1-MDCK efflux ratio is 1.32; the intrinsic clearance, human liver microsomes was found to be 14.3 mL/min/kg; the intrinsic clearance, rat liver microsomes came to 239 mL/min/kg; the aqueous solubility stood at 29.3 µg/mL (≈ 118 µM).

`N#Cc1cccc(CN2CCOC[C@H](O)C2)c1` came in with an intrinsic clearance, human liver microsomes of 7.9 mL/min/kg; an intrinsic clearance, rat liver microsomes of 12 mL/min/kg; an aqueous solubility of 21.1 µg/mL (≈ 90.9 µM).

Usually aqueous solubility stands for how much of the substance goes into solution per volume. Lower therefore signals a poorly soluble substance.
